Measured values as given in publication PMC4965013, “Open Source Drug Discovery with the Malaria Box Compound Collection for Neglected Diseases and Beyond” (PLoS Pathogens, 2016).
Where two headings read alike, the source gives them in different places. Values belong to the molecule of their own block, whether it stands above or below them.

What was measured:
[1] = tested on: P. falciparum 3D7 trophozoites; test: Metabolomic fingerprint profiling LC-MS; type: cell-based, Plasmodium falciparum; design: UDP-D-glucose / ADP-D-glucose: unit not given here; settings: for Acetyllysine / N-acetyl-L-ornithine / N-carbamoyl-L-aspartate / NADPH / dAMP / dCMP / dTDP / dTMP / dTTP / dihydroorotate / orotate / DLH / DLS/SDL/SID / PD / PEE / PVNF / 3-phosphoglycerate / ADP-D-glucose / ATP / CDP / D-sedoheptulose-1/7-phosphate / FAD / GMP / NAD+ / NADP+ / Octoluse Bisphosphate / Pyroglutamic acid / UDP-D-glucose / UDP-D-glucuronate / UDP-N-acetyl-glucosamine / UDP / UMP / UTP / a-ketoglutarate / citrate/isocitrate / cytidine / dATP / dGMP/AMP / fumarate / glucose-1/6-phosphate / glycerate / guanine / guanosine / hypoxanthine / indole / inosine / nicotinate / ornithine / phosphoenolpyruvate / pyruvate / ribose-phosphate / sarcosine/alanine / sn-glycerol-3-phosphate / succinate/methylmalonic acid / uridine / xanthosine: S2 Table Metabolomics; for Acetyllysine: metabolite Acetyllysine; for N-acetyl-L-ornithine: metabolite N-acetyl-L-ornithine; for N-carbamoyl-L-aspartate: metabolite N-carbamoyl-L-aspartate; for NADPH: metabolite NADPH; for dAMP: metabolite dAMP; for dCMP: metabolite dCMP; for dTDP: metabolite dTDP; for dTMP: metabolite dTMP; for dTTP: metabolite dTTP; for dihydroorotate: metabolite dihydroorotate; for orotate: metabolite orotate; for DLH: peptide DLH; for DLS/SDL/SID: peptide DLS/SDL/SID; for PD: peptide PD; for PEE: peptide PEE; for PVNF: peptide PVNF; for 3-phosphoglycerate: metabolite 3-phosphoglycerate; for ADP-D-glucose: metabolite ADP-D-glucose; for ATP: metabolite ATP; for CDP: metabolite CDP; for CDP / D-sedoheptulose-1/7-phosphate / GMP / Octoluse Bisphosphate / UDP / UMP / UTP / citrate/isocitrate / dGMP/AMP / fumarate / glucose-1/6-phosphate / glycerate / guanine / guanosine / inosine / pyruvate / sarcosine/alanine / succinate/methylmalonic acid / uridine / xanthosine: change in metabolite level after compound treatment; for D-sedoheptulose-1/7-phosphate: metabolite D-sedoheptulose-1/7-phosphate; for FAD: metabolite FAD; for GMP: metabolite GMP; for NAD+: metabolite NAD+; for NADP+: metabolite NADP+; for Octoluse Bisphosphate: metabolite Octoluse Bisphosphate; for Pyroglutamic acid: metabolite Pyroglutamic acid; for UDP-D-glucose: metabolite UDP-D-glucose; for UDP-D-glucuronate: metabolite UDP-D-glucuronate; for UDP-N-acetyl-glucosamine: metabolite UDP-N-acetyl-glucosamine; for UDP: metabolite UDP; for UMP: metabolite UMP; for UTP: metabolite UTP; for a-ketoglutarate: metabolite a-ketoglutarate; for citrate/isocitrate: metabolite citrate/isocitrate; for cytidine: metabolite cytidine; for dATP: metabolite dATP; for dGMP/AMP: metabolite dGMP/AMP; for fumarate: metabolite fumarate; for glucose-1/6-phosphate: metabolite glucose-1/6-phosphate; for glycerate: metabolite glycerate; for guanine: metabolite guanine; for guanosine: metabolite guanosine; for hypoxanthine: metabolite hypoxanthine; for indole: metabolite indole; for inosine: metabolite inosine; for 2_3-Diphosphoglyceric acid / 4-phosphopantothenate / 6-phospho-D-gluconate / FMN / IMP / Pyrophosphate / Sedoheptoluse bisphosphate / cyclic-AMP / glutathione disulfide / lactate / myo-inositol: metabolite level change after treatment; for nicotinate: metabolite nicotinate; for ornithine: metabolite ornithine; for phosphoenolpyruvate: metabolite phosphoenolpyruvate; for pyruvate: metabolite pyruvate; for ribose-phosphate: metabolite ribose-phosphate; for sarcosine/alanine: metabolite sarcosine/alanine; for sn-glycerol-3-phosphate: metabolite sn-glycerol-3-phosphate; for succinate/methylmalonic acid: metabolite succinate/methylmalonic acid; for uridine: metabolite uridine; for xanthosine: metabolite xanthosine
P. falciparum 3D7 = test: [3H]-hypoxanthine growth inhibition, modified HCO3- or O2; type: cell-based; settings: for IC50: Plasmodium falciparum
P. falciparum = test: EC50 listed in S2 Table Metabolomics (used to set the concentration tested); type: cell-based; settings: Plasmodium falciparum; EC50 used for Factor_XEC50 in metabolomics; read-out: EC50_nM
[2] = 3D7, read-out: P. falciparum 3D7 IC50 HCO3- (2g/L), standard media
[3] = 3D7, HCO3- reduced media, read-out: P. falciparum 3D7 IC50 HCO3- reduced

EC50 (P. falciparum): 406 nM
SMILES: CCN(CC)CCNc1ncnc2c1[nH]c1ccc(Cl)cc12 [MMV396703]
Acetyllysine [1]: -0.2691 | N-acetyl-L-ornithine [1]: -0.2168 | N-carbamoyl-L-aspartate [1]: 1.148 | NADPH [1]: -0.09375 | dAMP [1]: 0.7031 | dCMP [1]: -0.6066 | dTDP [1]: 0.1301 | dTMP [1]: 0.2768 | dTTP [1]: -0.448 | dihydroorotate [1]: 1.736 | orotate [1]: -0.221 | DLH [1]: -2.825 | DLS/SDL/SID [1]: -3.008 | PD [1]: -0.5054 | PEE [1]: -0.1284 | PVNF [1]: -2.309 | 3-phosphoglycerate [1]: -0.08336 | ADP-D-glucose [1]: -0.05094 | ATP [1]: -0.4333 | CDP [1]: 0.1613 | D-sedoheptulose-1/7-phosphate [1]: 0.02906 | FAD [1]: -0.01537 | GMP [1]: -0.5327 | NAD+ [1]: 0.6915 | NADP+ [1]: -0.1108 | Octoluse Bisphosphate [1]: -0.5568 | Pyroglutamic acid [1]: -0.07773 | UDP-D-glucose [1]: 0.04104 | UDP-D-glucuronate [1]: -0.19 | UDP-N-acetyl-glucosamine [1]: 0.01931 | UDP [1]: 0.1008 | UMP [1]: -0.1897 | UTP [1]: -0.3667 | a-ketoglutarate [1]: -0.2121 | citrate/isocitrate [1]: -0.02741 | cytidine [1]: -0.169 | dATP [1]: -0.3924 | dGMP/AMP [1]: 0.4109 | fumarate [1]: 0.899 | glucose-1/6-phosphate [1]: 0.3195 | glycerate [1]: 0.2766 | guanine [1]: 0.5966 | guanosine [1]: 0.5739 | hypoxanthine [1]: -0.03794 | indole [1]: -0.04008 | inosine [1]: 0.01185 | 2_3-Diphosphoglyceric acid [1]: -0.2785 | 4-phosphopantothenate [1]: 0.1971 | 6-phospho-D-gluconate [1]: -0.09007 | FMN [1]: -0.3587 | IMP [1]: 0.3624 | Pyrophosphate [1]: -0.1133 | Sedoheptoluse bisphosphate [1]: 0.1128 | cyclic-AMP [1]: -0.07748 | glutathione disulfide [1]: -0.04771 | lactate [1]: -0.382 | myo-inositol [1]: -0.001865 | nicotinate [1]: 0.1485 | ornithine [1]: 0.2269 | phosphoenolpyruvate [1]: -0.03548 | pyruvate [1]: -0.182 | ribose-phosphate [1]: -0.3286 | sarcosine/alanine [1]: -0.1738 | sn-glycerol-3-phosphate [1]: -0.2165 | succinate/methylmalonic acid [1]: -0.02068 | uridine [1]: -0.05174 | xanthosine [1]: -0.494 | fold change (IC50reduced/IC50normal) (P. falciparum 3D7): 2.6 | IC50 (P. falciparum 3D7; [2]): 326 nM | IC50 (P. falciparum 3D7; [3]): 851 nM

EC50 (P. falciparum): 433 nM
SMILES: O=C(NCC(c1ccsc1)N1CCCCCC1)c1ccc(C(F)(F)F)cc1 (stereo not drawn) [MMV396672]
Acetyllysine [1]: -0.3412 | N-acetyl-L-ornithine [1]: 0.04406 | N-carbamoyl-L-aspartate [1]: 1.501 | NADPH [1]: 1.59 | dAMP [1]: -0.1547 | dCMP [1]: -0.6707 | dTDP [1]: -0.2295 | dTMP [1]: -0.1132 | dTTP [1]: -0.02683 | dihydroorotate [1]: 1.3113 | orotate [1]: -0.2374 | DLH [1]: 0.2454 | DLS/SDL/SID [1]: 0.4945 | PD [1]: -0.2062 | PEE [1]: 0.3834 | PVNF [1]: 0.4792 | 3-phosphoglycerate [1]: 0.01662 | ADP-D-glucose [1]: 0.1495 | ATP [1]: 0.06805 | CDP [1]: -0.3083 | D-sedoheptulose-1/7-phosphate [1]: -0.1874 | FAD [1]: 0.01705 | GMP [1]: -0.121 | NAD+ [1]: -0.07697 | NADP+ [1]: 0.1144 | Octoluse Bisphosphate [1]: -0.0874 | Pyroglutamic acid [1]: -0.2718 | UDP-D-glucose [1]: 0.05361 | UDP-D-glucuronate [1]: 0.1556 | UDP-N-acetyl-glucosamine [1]: -0.04862 | UDP [1]: -0.327 | UMP [1]: -1.306 | UTP [1]: -0.1422 | a-ketoglutarate [1]: -0.6396 | citrate/isocitrate [1]: -0.6773 | cytidine [1]: 0.6424 | dATP [1]: 0.05116 | dGMP/AMP [1]: -0.08656 | fumarate [1]: -0.2118 | glucose-1/6-phosphate [1]: 0.01846 | glycerate [1]: -1.2197 | guanine [1]: -0.7457 | guanosine [1]: -1.987 | hypoxanthine [1]: 0.2737 | indole [1]: 0.1693 | inosine [1]: -0.393 | 2_3-Diphosphoglyceric acid [1]: -0.1323 | 4-phosphopantothenate [1]: -0.391 | 6-phospho-D-gluconate [1]: -0.02288 | FMN [1]: 0.06346 | IMP [1]: -0.1805 | Pyrophosphate [1]: -0.05249 | Sedoheptoluse bisphosphate [1]: -0.2083 | cyclic-AMP [1]: -0.07949 | glutathione disulfide [1]: -0.4263 | lactate [1]: -0.6757 | myo-inositol [1]: -1.04 | nicotinate [1]: -1.005 | ornithine [1]: 0.1454 | phosphoenolpyruvate [1]: -0.3004 | pyruvate [1]: -1.162 | ribose-phosphate [1]: 0.03374 | sarcosine/alanine [1]: -0.5204 | sn-glycerol-3-phosphate [1]: -0.07409 | succinate/methylmalonic acid [1]: -0.4318 | uridine [1]: -0.8839 | xanthosine [1]: -0.8196 | fold change (IC50reduced/IC50normal) (P. falciparum 3D7): 2.6 | IC50 (P. falciparum 3D7; [2]): 425 nM | IC50 (P. falciparum 3D7; [3]): 1120 nM

SMILES: CCN(CC)CCNc1ccnc2cc(Cl)ccc12 [MMV006087]
Acetyllysine [1]: -0.6709 | N-acetyl-L-ornithine [1]: -0.3158 | N-carbamoyl-L-aspartate [1]: 0.2408 | NADPH [1]: 1.332 | dAMP [1]: 1.732 | dCMP [1]: 0.4187 | dTDP [1]: 0.1999 | dTMP [1]: 1.797 | dTTP [1]: -0.4289 | dihydroorotate [1]: 0.1541 | orotate [1]: -0.4098 | DLH [1]: -1.609 | DLS/SDL/SID [1]: -1.645 | PD [1]: -0.5241 | PEE [1]: 0.8188 | PVNF [1]: -2.104 | 3-phosphoglycerate [1]: -0.1063 | ADP-D-glucose [1]: 0.134 | ATP [1]: -0.2173 | CDP [1]: 0.2969 | D-sedoheptulose-1/7-phosphate [1]: -0.3976 | FAD [1]: -0.08711 | GMP [1]: 0.04645 | NAD+ [1]: -0.09966 | NADP+ [1]: 0.09641 | Octoluse Bisphosphate [1]: 0.7357 | Pyroglutamic acid [1]: -0.2816 | UDP-D-glucose [1]: -0.03029 | UDP-D-glucuronate [1]: -0.03795 | UDP-N-acetyl-glucosamine [1]: -0.1287 | UDP [1]: -0.01186 | UMP [1]: -0.1675 | UTP [1]: -0.4234 | a-ketoglutarate [1]: -1.012 | citrate/isocitrate [1]: -0.5672 | cytidine [1]: 0.4735 | dATP [1]: -0.2015 | dGMP/AMP [1]: 1.373 | fumarate [1]: -0.3281 | glucose-1/6-phosphate [1]: -0.3642 | glycerate [1]: -1.245 | guanine [1]: -0.2729 | guanosine [1]: -1.735 | hypoxanthine [1]: 0.3732 | indole [1]: 0.02177 | inosine [1]: -0.5366 | 2_3-Diphosphoglyceric acid [1]: -0.3682 | 4-phosphopantothenate [1]: -0.474 | 6-phospho-D-gluconate [1]: -0.3619 | FMN [1]: 0.01066 | IMP [1]: -0.05089 | Pyrophosphate [1]: -0.2464 | Sedoheptoluse bisphosphate [1]: 1.503 | cyclic-AMP [1]: -0.4094 | glutathione disulfide [1]: -0.5661 | lactate [1]: -0.8938 | myo-inositol [1]: -1.322 | nicotinate [1]: -1.055 | ornithine [1]: 0.317 | phosphoenolpyruvate [1]: -0.3268 | pyruvate [1]: -1.42 | ribose-phosphate [1]: -0.4165 | sarcosine/alanine [1]: -0.8094 | sn-glycerol-3-phosphate [1]: -0.2401 | succinate/methylmalonic acid [1]: -0.2149 | uridine [1]: -1.004 | xanthosine [1]: -1.365 | fold change (IC50normal/ IC50hypoxia) (P. falciparum 3D7): 2.2 | fold change (IC50reduced/IC50normal) (P. falciparum 3D7): 2.0 | IC50 (P. falciparum 3D7; 3D7, read-out: P. falciparum 3D7 IC50 1% O2, 1% O2 hypoxia): 18 nM | IC50 (P. falciparum 3D7; 3D7, read-out: P. falciparum 3D7 IC50 5% O2): 40 nM | IC50 (P. falciparum 3D7; [2]): 46 nM | IC50 (P. falciparum 3D7; [3]): 94 nM | EC50 (P. falciparum): 58.1 nM
